According to US20100144855A1, “APPLICATION OF SEDOISOPROSAN FOR PREPARATION OF MEDICINE FOR TREATMENT OF HUMAN HBeAg POSITIVE CHRONIC HEPATITIS B” (priority 2008, published 2010):

Test: clinical trial, safety in HBeAg positive chronic hepatitis B patients
Assay type: in vivo, human
Settings: for cases with adverse events: 16 cases
Excerpt: The clinical trial protocol was designed according to the randomized, double-blind and controlled principle. The clinical efficacy and the safety of sedoisoprosan for therapy on human HBeAg positive chronic hepatitis B is defined according to the changes of vivo HBV-DNA level, ALT level, vital signs, blood routine indexes, blood biochemical indexes and thyroid function indexes before and after administration and the incidence of adverse events.
Patients enrolled in the clinical trials were randomly divided into four groups, i.e. negative control group (800 mg mannite), low dose group (200 mg sedoisoprosan with 600 mg mannite), median dose group (400 mg sedoisoprosan with 400 mg mannite) and high dose group (800 mg sedoisoprosan) respectively. Each patient was assigned with a CRF No. which was randomly generated by computer.
Baseline assessment was performed on the day of the first administration, which included medical examination, hematological examination, blood biochemical examination, thyroid function examination, ALT examination and quantitative detection of HBV-DNA. The medical examination included the examination of stature, avoirdupois, blood pressure and pulse rate. The hematological examination included the leucocyte, neutrophil, erythrocyte, platelet and haemoglobin counts, and the prothrombin time. The blood biochemical examination included the examination of serum potassium, sodium, GOT, total bilirubin, AKP, total protein, albumin, total cholesterol, triglyceride, urea nitrogen, creatinine and glucose.
The patients were followed up at the 1st, 2nd, 4th, 8th and 12th week of the treatment. The blood biochemical examination and the quantitative detection of HBV-DNA was performed at the 2nd, 4th, 8th and 12th week of the treatment, and the adverse events were recorded at the same time. The thyroid function examination was performed at the 12th week of the treatment.
The safety indexes included vital signs, clinical laboratory parameters, adverse events, important adverse events, serious adverse events and the early termination cases. The safety analysis should be performed on patients who have received at least once administration and were evaluated after the administration.
The detection of vital signs and laboratory parameters and the recording for adverse events was performed at baseline and at the 1st, 2nd, 4th, 8th and 12th week of the treatment. The vital signs and laboratory parameters were evaluated by the changes thereof before and after the treatment. The incidence of adverse events was figured by the proportion of patients having adverse events during the treatment, and the evaluation of adverse events included the kinds, grades and the relationship to the drugs. The adverse events were recorded by descriptive statistics, and comparison of the incidence thereof between the four groups was performed by Fisher probabilistic test.

[1] = high dose group, 800 mg, the 1st week
[2] = high dose group, 800 mg, the 2nd week
[3] = high dose group, 800 mg, the 4th week
[4] = high dose group, 800 mg, the 8th week
[5] = high dose group, 800 mg, the 12th week
[6] = low dose group, 200 mg, the 1st week
[7] = low dose group, 200 mg, the 2nd week
[8] = low dose group, 200 mg, the 4th week
[9] = low dose group, 200 mg, the 8th week
[10] = low dose group, 200 mg, the 12th week
[11] = median dose group, 400 mg, the 1st week
[12] = median dose group, 400 mg, the 2nd week
[13] = median dose group, 400 mg, the 4th week
[14] = median dose group, 400 mg, the 8th week
[15] = median dose group, 400 mg, the 12th week
[16] = patient CRF 3, high dose group (800 mg)
[17] = patient CRF 7, low dose group (200 mg)
[18] = patient CRF 10, low dose group (200 mg)
[19] = patient CRF 14, low dose group (200 mg)
[20] = patient CRF 15, median dose group (400 mg)
[21] = patient CRF 17, low dose group (200 mg)
[22] = patient CRF 19, high dose group (800 mg)
[23] = patient CRF 20, median dose group (400 mg)
[24] = patient CRF20, median dose group, after 8 weeks' treatment
[25] = patient CRF 32, median dose group (400 mg)
[26] = patient CRF 60, median dose group (400 mg)

CC1(C)OC2C3COC(CO)(O3)C(O)C2O1 (centres unmarked) [sedoisoprosan, isopropylidene sedoheptulosan]
safety of the highest dose (vital signs, blood routine and blood biochemical indexes) (800 mg): safe
changes in total bilirubin levels before and after the treatment (12 weeks' treatment): significant changes in total bilirubin levels before and after the treatment, but such changes were still within the normal range
changes in vital signs, blood routine indexes and blood biochemical indexes, excluding the total bilirubin levels, before and after the treatment (12 weeks' treatment): No significant changes
important adverse events related to the study drug and needing treatment (CRF16, CRF19 and CRF20): 3 cases
central nervous system abnormalities among adverse events (all groups): No central nervous system abnormalities were found
incidence of adverse events (clinical trials, 200-800 mg): low
patients who quitted the clinical trials for adverse events (high dose group): No patients
cases with adverse events (high dose group (800 mg)): two
Avoirdupois [1]: 61.34 ± 9.96 kg
Diastolic Pressure [1]: 75.31 ± 7.26 mmHg
Pulse rate [1]: 76.00 ± 5.81 times/min
Respiratory frequency [1]: 18.00 ± 1.86 times/min
Systolic Pressure [1]: 115.56 ± 13.17 mmHg
Avoirdupois [2]: 61.41 ± 9.89 kg
Diastolic Pressure [2]: 75.31 ± 6.14 mmHg
Pulse rate [2]: 75.81 ± 5.27 times/min
Respiratory frequency [2]: 18.38 ± 1.78 times/min
Systolic Pressure [2]: 112.81 ± 12.55 mmHg
Avoirdupois [3]: 61.53 ± 9.81 kg
Diastolic Pressure [3]: 75.44 ± 6.03 mmHg
Pulse rate [3]: 76.38 ± 5.95 times/min
Respiratory frequency [3]: 17.94 ± 1.84 times/min
Systolic Pressure [3]: 112.69 ± 11.69 mmHg
Avoirdupois [4]: 62.06 ± 9.20 kg
Diastolic Pressure [4]: 77.56 ± 5.05 mmHg
Pulse rate [4]: 75.75 ± 5.27 times/min
Respiratory frequency [4]: 18.75 ± 1.24 times/min
Systolic Pressure [4]: 115.19 ± 10.91 mmHg
Avoirdupois [5]: 62.67 ± 9.45 kg
Diastolic Pressure [5]: 76.73 ± 5.16 mmHg
Pulse rate [5]: 75.73 ± 4.85 times/min
Respiratory frequency [5]: 19.13 ± 1.13 times/min
Systolic Pressure [5]: 115.20 ± 11.55 mmHg
cases with adverse events (low dose group (200 mg)): four
Avoirdupois [6]: 61.72 ± 10.47 kg
Diastolic Pressure [6]: 72.38 ± 5.14 mmHg
Pulse rate [6]: 76.06 ± 5.95 times/min
Respiratory frequency [6]: 18.63 ± 1.31 times/min
Systolic Pressure [6]: 116.63 ± 8.79 mmHg
Avoirdupois [7]: 61.59 ± 10.80 kg
Diastolic Pressure [7]: 73.38 ± 6.01 mmHg
Pulse rate [7]: 74.13 ± 4.70 times/min
Respiratory frequency [7]: 18.75 ± 1.57 times/min
Systolic Pressure [7]: 116.00 ± 10.67 mmHg
Avoirdupois [8]: 61.57 ± 10.72 kg
Diastolic Pressure [8]: 74.87 ± 6.55 mmHg
Pulse rate [8]: 75.13 ± 4.50 times/min
Respiratory frequency [8]: 18.60 ± 1.30 times/min
Systolic Pressure [8]: 113.93 ± 9.95 mmHg
Avoirdupois [9]: 62.86 ± 11.14 kg
Diastolic Pressure [9]: 73.29 ± 5.82 mmHg
Pulse rate [9]: 73.57 ± 5.65 times/min
Respiratory frequency [9]: 18.64 ± 1.45 times/min
Systolic Pressure [9]: 115.71 ± 9.75 mmHg
Avoirdupois [10]: 63.58 ± 12.09 kg
Diastolic Pressure [10]: 74.54 ± 4.94 mmHg
Pulse rate [10]: 71.54 ± 4.16 times/min
Respiratory frequency [10]: 19.15 ± 1.28 times/min
Systolic Pressure [10]: 115.85 ± 10.79 mmHg
cases with adverse events (median dose group (400 mg)): four
Avoirdupois [11]: 62.67 ± 12.11 kg
Diastolic Pressure [11]: 71.53 ± 7.53 mmHg
Pulse rate [11]: 77.60 ± 3.83 times/min
Respiratory frequency [11]: 19.13 ± 3.76 times/min
Systolic Pressure [11]: 114.33 ± 11.00 mmHg
Avoirdupois [12]: 62.30 ± 12.09 kg
Diastolic Pressure [12]: 71.73 ± 6.24 mmHg
Pulse rate [12]: 75.47 ± 5.36 times/min
Respiratory frequency [12]: 18.53 ± 3.54 times/min
Systolic Pressure [12]: 114.67 ± 9.85 mmHg
Avoirdupois [13]: 61.73 ± 9.86 kg
Diastolic Pressure [13]: 73.13 ± 5.69 mmHg
Pulse rate [13]: 76.40 ± 3.81 times/min
Respiratory frequency [13]: 18.40 ± 4.03 times/min
Systolic Pressure [13]: 115.80 ± 10.25 mmHg
Avoirdupois [14]: 62.70 ± 11.76 kg
Diastolic Pressure [14]: 73.73 ± 4.51 mmHg
Pulse rate [14]: 75.40 ± 3.25 times/min
Respiratory frequency [14]: 19.27 ± 2.34 times/min
Systolic Pressure [14]: 110.87 ± 7.70 mmHg
Avoirdupois [15]: 59.88 ± 8.18 kg
Diastolic Pressure [15]: 74.77 ± 5.15 mmHg
Pulse rate [15]: 78.00 ± 4.53 times/min
Respiratory frequency [15]: 19.31 ± 2.66 times/min
Systolic Pressure [15]: 115.69 ± 9.67 mmHg
reason for early termination (one patient, low dose group, after 6 weeks' treatment): progressive increasing ALT level
Adverse event Liver Dysfunction: Outcome [16]: Remission Without Sequela
Adverse event Liver Dysfunction: Relation to the study drug [16]: Unrelated
Adverse event Liver Dysfunction: Severity [16]: Light
Adverse event Urinary Tract Infection: Outcome [17]: Remission Without Sequela
Adverse event Urinary Tract Infection: Relation to the study drug [17]: Unrelated
Adverse event Urinary Tract Infection: Severity [17]: Light
Adverse event Progressive Increase in ALT Level: Outcome [18]: Reexamination of Liver Function After A Week
Adverse event Progressive Increase in ALT Level: Relation to the study drug [18]: Maybe Unrelated
Adverse event Progressive Increase in ALT Level: Severity [18]: Middle
Adverse event Alopecia: Outcome [19]: No Change
Adverse event Alopecia: Relation to the study drug [19]: Maybe Related
Adverse event Alopecia: Severity [19]: Light
Adverse event Gingival Bleeding: Outcome [19]: Remission Without Sequela
Adverse event Gingival Bleeding: Relation to the study drug [19]: Maybe Unrelated
Adverse event Gingival Bleeding: Severity [19]: Light
Adverse event Liver Dysfunction: Outcome [19]: Remission Without Sequela
Adverse event Liver Dysfunction: Relation to the study drug [19]: Maybe Unrelated
Adverse event Liver Dysfunction: Severity [19]: Light
Adverse event Pharyngoxerosis: Outcome [19]: Remission Without Sequela
Adverse event Pharyngoxerosis: Relation to the study drug [19]: Unrelated
Adverse event Pharyngoxerosis: Severity [19]: Light
Adverse event Alopecia: Outcome [20]: No Change
Adverse event Alopecia: Relation to the study drug [20]: Maybe Related
Adverse event Alopecia: Severity [20]: Light
Adverse event Emesis: Outcome [20]: Remission Without Sequela
Adverse event Emesis: Relation to the study drug [20]: Maybe Unrelated
Adverse event Emesis: Severity [20]: Light
Adverse event Gingival Bleeding: Outcome [20]: Remission Without Sequela
Adverse event Gingival Bleeding: Relation to the study drug [20]: Maybe Unrelated
Adverse event Gingival Bleeding: Severity [20]: Light
Adverse event Increase in ALT Level: Outcome [20]: Remission Without Sequela
Adverse event Increase in ALT Level: Relation to the study drug [20]: Maybe Unrelated
Adverse event Increase in ALT Level: Severity [20]: Light
Adverse event Alopecia: Outcome [21]: No Change
Adverse event Alopecia: Relation to the study drug [21]: Maybe Related
Adverse event Alopecia: Severity [21]: Light
Adverse event ALT 74 U/L, TBil 133.1: Outcome [22]: Remission Without Sequela
Adverse event ALT 74 U/L, TBil 133.1: Relation to the study drug [22]: Maybe Related
Adverse event ALT 74 U/L, TBil 133.1: Severity [22]: Middle
Adverse event Aggravated Muscle Ache: Outcome [22]: Remission Without Sequela
Adverse event Aggravated Muscle Ache: Relation to the study drug [22]: Maybe Related
Adverse event Aggravated Muscle Ache: Severity [22]: Middle
Adverse event Costalgia And Notalgia: Outcome [22]: Remission Without Sequela
Adverse event Costalgia And Notalgia: Relation to the study drug [22]: Maybe Related
Adverse event Costalgia And Notalgia: Severity [22]: Middle
Adverse event Generalized Muscle Ache: Outcome [22]: Remission Without Sequela
Adverse event Generalized Muscle Ache: Relation to the study drug [22]: Maybe Related
Adverse event Generalized Muscle Ache: Severity [22]: Light
Adverse event Acid Regurgitation: Outcome [23]: Remission Without Sequela
Adverse event Acid Regurgitation: Relation to the study drug [23]: Maybe Related
Adverse event Acid Regurgitation: Severity [23]: Light
Adverse event Aggravated Digestive Symptom: Outcome [23]: Remission Without Sequela
Adverse event Aggravated Digestive Symptom: Relation to the study drug [23]: Related
Adverse event Aggravated Digestive Symptom: Severity [23]: Middle
Adverse event Dark Urine: Outcome [23]: Remission Without Sequela
Adverse event Dark Urine: Relation to the study drug [23]: Related
Adverse event Dark Urine: Severity [23]: Middle
Adverse event Epigastric Discomfort: Outcome [23]: Remission Without Sequela
Adverse event Epigastric Discomfort: Relation to the study drug [23]: Related
Adverse event Epigastric Discomfort: Severity [23]: Middle
Adverse event Hypodynamia: Outcome [23]: Remission Without Sequela
Adverse event Hypodynamia: Relation to the study drug [23]: Related
Adverse event Hypodynamia: Severity [23]: Middle
Adverse event Icterus: Outcome [23]: Remission Without Sequela
Adverse event Icterus: Relation to the study drug [23]: Related
Adverse event Icterus: Severity [23]: Middle
ALT level at early termination [24]: 343 U/L
AST level at early termination [24]: 517 U/L
TBil level at early termination [24]: 68.1 µmol/L
Adverse event Toothache And Periodontitis: Outcome [25]: Remission Without Sequela
Adverse event Toothache And Periodontitis: Relation to the study drug [25]: Unrelated
Adverse event Toothache And Periodontitis: Severity [25]: Middle
Adverse event Upper Respiratory Tract Infection: Outcome [26]: Remission Without Sequela
Adverse event Upper Respiratory Tract Infection: Relation to the study drug [26]: Unrelated
Adverse event Upper Respiratory Tract Infection: Severity [26]: Middle
